Assay results as given in patent publication US11534412B2, “Application of totarol and pharmaceutical composition containing totarol” (Emergopharm SP. Z O.O. SP.K., priority 2017, dated 2022).

Tested on: Lactobacillus gasseri - clinical strain
Experiment: Determination of the MIC value of totarol, broth dilution in 96-well plates with OD and quantitative culture
Type: cell-based
Conditions: for OD, average of 3 measurements / OD: 620 nm
Protocol: Test of antibacterial activity of totarol using DMI (dimethylisosorbide) as a solvent.
A suspension of 0.5 McF in physiological saline (suspension density 10^8 cfu/ml) was prepared from a 24-hour culture of a standard strain. 1 ml of the suspension was collected to 9 ml of a TSB broth ([…]). Suspensions with a dilution of 10^−6 were prepared in the described way. A suspension with a cell density of 10^5 cfu/ml was selected for further investigations. For each strain, 2 96-well plates were prepared: the first one was intended for the OD measurement, the second one—for quantitative culture on solid media. • A/ to wells B1-D1, B2-D2 and B-D 4-11, 100 µl of the broth were added; • B/ to wells B3-D3, 200 µl of the broth were added; • C/ to wells B1-D1, 1 µl of stock I was added; • D/ to wells B2-D2, 1 µl of stock II was added; • E/ to wells B3-D3, 2 µl of stock III were added. Using a multichannel pipette, 100 µl of the sample were collected from each of the B3-D3 wells and placed in wells B4-D4 (mixing by sucking the content in and letting it out for 5 times). The pipette tips were replaced and 100 µl of the content were collected from of the B4-D4 wells, and placed in wells B5-D5, mixing as previously. These operations were repeated through the wells B11-D11. The content in the B11-D11 wells was mixed, and 100 µl of the fluid were collected and discarded. This way, a series of dilutions of totarol samples in DMI in the range of 0.32% to 0.0004% was obtained. Then, 100 µl of a corresponding bacterial culture were added to the wells B, C, D 1-11. In consequence, a change in the final concentration range occurred, to 0.16%-0.0002%. Control Preparation: • Negative control: 100 µl of the broth+1 pl DMI were added to the Al well. • Positive control (I): 100 µl of the broth with the bacterial culture were added to the wells E1-G1. • Diluent positive control (II): 100 µl of the broth with the bacterial culture+1 pl DMI were added to the wells E2-G2. The OD value in the individual wells was read at the wavelength of 620 nm (read time 0). From the second 96-well plate, a culture was inoculated by a quantitative method from every dilution onto a well with a proper solid medium, and incubated for 24 h at 37° C. under aerobic or anaerobic conditions, depending on the strain. The plates were incubated under aerobic conditions or in an atmosphere of an elevated CO2 concentration (for the strains requiring it) in an incubator at 37° C. The OD was read after 8 h, 16 h, and 24 h, respectively. Before every OD measurement, the contents of the wells were mixed delicately. In parallel to the OD readout, cultures we inoculated from the second 96-well plate, from every dilution, into plates with a proper solid medium, and incubated for 24 h at 37° C., under aerobic or anaerobic conditions. For the analysis of the experimental results, an average value of the OD measurement obtained from three repetitions in the individual times (0, 8, 16, and 24 h) for the individual microbes (Gardnerella vaginalis, Streptococcus agalactiae, Enterococcus faecalis, Lactobacillus gasseri/plantarum) was taken. Additionally, the number of bacteria grown on solid media was taken into account. The results of the tests confirm the specific, concentration-dependent selectiveness, and the high antibacterial effectiveness of totarol against the pathogenic microorganisms: Gardnerella vaginalis, Streptococcus agalactiae, Enterococcus faecalis at low MIC values safe for bacteria of the Lactobacillus genus.

Question: What does the source list for `CC(C)c1c(O)ccc2c1CC[C@H]1C(C)(C)CCC[C@]21C` [Totarol, totarol]?
Answer: MIC value (L. gasseri): 0.04%; Inoculation cfu/ml (totarol 0.0002%, 0 h): 3.1 × 10^5 cfu/ml; OD, average of 3 measurements (totarol 0.0002%, 0 h): 0.299; Inoculation cfu/ml (totarol 0.0002%, 8 h): 2.1 × 10^5 cfu/ml; OD, average of 3 measurements (totarol 0.0002%, 8 h): 0.302; Inoculation cfu/ml (totarol 0.0002%, 16 h): 5.9 × 10^6 cfu/ml; OD, average of 3 measurements (totarol 0.0002%, 16 h): 0.897; Inoculation cfu/ml (totarol 0.0002%, 24 h): 2.9 × 10^7 cfu/ml; OD (totarol 0.0002%, 24 h): 1.492; Inoculation cfu/ml (totarol 0.0004%, 0 h): 5.1 × 10^5 cfu/ml; OD, average of 3 measurements (totarol 0.0004%, 0 h): 0.296; Inoculation cfu/ml (totarol 0.0004%, 8 h): 2.1 × 10^5 cfu/ml; OD, average of 3 measurements (totarol 0.0004%, 8 h): 0.306; Inoculation cfu/ml (totarol 0.0004%, 16 h): 3.9 × 10^6 cfu/ml; OD, average of 3 measurements (totarol 0.0004%, 16 h): 0.915; Inoculation cfu/ml (totarol 0.0004%, 24 h): 3.2 × 10^7 cfu/ml; OD (totarol 0.0004%, 24 h): 1.484; Inoculation cfu/ml (totarol 0.0007%, 0 h): 1.7 × 10^5 cfu/ml; OD, average of 3 measurements (totarol 0.0007%, 0 h): 0.289; Inoculation cfu/ml (totarol 0.0007%, 8 h): 1.9 × 10^5 cfu/ml; OD, average of 3 measurements (totarol 0.0007%, 8 h): 0.299; Inoculation cfu/ml (totarol 0.0007%, 16 h): 3.6 × 10^6 cfu/ml; OD, average of 3 measurements (totarol 0.0007%, 16 h): 0.879; Inoculation cfu/ml (totarol 0.0007%, 24 h): 3 × 10^7 cfu/ml; OD (totarol 0.0007%, 24 h): 1.458; Inoculation cfu/ml (totarol 0.0013%, 0 h): 3.8 × 10^5 cfu/ml; OD, average of 3 measurements (totarol 0.0013%, 0 h): 0.298; Inoculation cfu/ml (totarol 0.0013%, 8 h): 1.8 × 10^5 cfu/ml; OD, average of 3 measurements (totarol 0.0013%, 8 h): 0.301; Inoculation cfu/ml (totarol 0.0013%, 16 h): 4.1 × 10^6 cfu/ml; OD, average of 3 measurements (totarol 0.0013%, 16 h): 0.879; Inoculation cfu/ml (totarol 0.0013%, 24 h): 2.1 × 10^7 cfu/ml; OD (totarol 0.0013%, 24 h): 1.457; Inoculation cfu/ml (totarol 0.0025%, 0 h): 4.5 × 10^5 cfu/ml; OD, average of 3 measurements (totarol 0.0025%, 0 h): 0.285; Inoculation cfu/ml (totarol 0.0025%, 8 h): 1.5 × 10^5 cfu/ml; OD, average of 3 measurements (totarol 0.0025%, 8 h): 0.302; Inoculation cfu/ml (totarol 0.0025%, 16 h): 2.3 × 10^6 cfu/ml; OD, average of 3 measurements (totarol 0.0025%, 16 h): 0.880; Inoculation cfu/ml (totarol 0.0025%, 24 h): 2.3 × 10^7 cfu/ml; OD (totarol 0.0025%, 24 h): 1.459; Inoculation cfu/ml (totarol 0.005%, 0 h): 1.2 × 10^5 cfu/ml; OD, average of 3 measurements (totarol 0.005%, 0 h): 0.292; Inoculation cfu/ml (totarol 0.005%, 8 h): 2 × 10^5 cfu/ml; OD, average of 3 measurements (totarol 0.005%, 8 h): 0.300; Inoculation cfu/ml (totarol 0.005%, 16 h): 9.1 × 10^6 cfu/ml; OD, average of 3 measurements (totarol 0.005%, 16 h): 0.843; Inoculation cfu/ml (totarol 0.005%, 24 h): 2.1 × 10^7 cfu/ml; OD (totarol 0.005%, 24 h): 1.387; Inoculation cfu/ml (totarol 0.01%, 0 h): 3.9 × 10^5 cfu/ml; OD, average of 3 measurements (totarol 0.01%, 0 h): 0.301; Inoculation cfu/ml (totarol 0.01%, 8 h): 7 × 10^4 cfu/ml; OD, average of 3 measurements (totarol 0.01%, 8 h): 0.297; Inoculation cfu/ml (totarol 0.01%, 16 h): 5.3 × 10^6 cfu/ml; OD, average of 3 measurements (totarol 0.01%, 16 h): 0.799; Inoculation cfu/ml (totarol 0.01%, 24 h): 1.3 × 10^7 cfu/ml; OD (totarol 0.01%, 24 h): 1.301; Inoculation cfu/ml (totarol 0.02%, 0 h): 1.4 × 10^5 cfu/ml; OD, average of 3 measurements (totarol 0.02%, 0 h): 0.305; Inoculation cfu/ml (totarol 0.02%, 8 h): 1.4 × 10^5 cfu/ml; OD, average of 3 measurements (totarol 0.02%, 8 h): 0.299; Inoculation cfu/ml (totarol 0.02%, 16 h): 2.1 × 10^5 cfu/ml; OD, average of 3 measurements (totarol 0.02%, 16 h): 0.753; Inoculation cfu/ml (totarol 0.02%, 24 h): 1 × 10^5 cfu/ml; OD (totarol 0.02%, 24 h): 1.208; Inoculation cfu/ml (totarol 0.04%, 0 h): 4.6 × 10^5 cfu/ml; OD, average of 3 measurements (totarol 0.04%, 0 h): 0.352; Inoculation cfu/ml (totarol 0.04%, 8 h): 6 × 10^4 cfu/ml; OD, average of 3 measurements (totarol 0.04%, 8 h): 0.335; Inoculation cfu/ml (totarol 0.04%, 16 h): 4.5 × 10^3 cfu/ml; OD, average of 3 measurements (totarol 0.04%, 16 h): 0.342; Inoculation cfu/ml (totarol 0.04%, 24 h): 5 × 10^3 cfu/ml; OD (totarol 0.04%, 24 h): 0.349; Inoculation cfu/ml (totarol 0.08%, 0 h): 2.9 × 10^5 cfu/ml; OD, average of 3 measurements (totarol 0.08%, 0 h): 0.526; Inoculation cfu/ml (totarol 0.08%, 8 h): 1 × 10^4 cfu/ml; OD, average of 3 measurements (totarol 0.08%, 8 h): 0.409; Inoculation cfu/ml (totarol 0.08%, 16 h): 1.9 × 10^2 cfu/ml; OD, average of 3 measurements (totarol 0.08%, 16 h): 0.463; Inoculation cfu/ml (totarol 0.08%, 24 h): 1.2 × 10^2 cfu/ml; OD (totarol 0.08%, 24 h): 0.472; Inoculation cfu/ml (totarol 0.16%, 0 h): 6.5 × 10^5 cfu/ml; OD, average of 3 measurements (totarol 0.16%, 0 h): 0.427; Inoculation cfu/ml (totarol 0.16%, 8 h): 2.5 × 10^4 cfu/ml; OD, average of 3 measurements (totarol 0.16%, 8 h): 0.411; Inoculation cfu/ml (totarol 0.16%, 16 h): 3.1 × 10^1 cfu/ml; OD, average of 3 measurements (totarol 0.16%, 16 h): 0.409; Inoculation cfu/ml (totarol 0.16%, 24 h): 1 × 10^1 cfu/ml; OD (totarol 0.16%, 24 h): 0.406
